According to US20260286306A1, “Culture Medium, Production Method, and Cell Preparation19155704” (National University Corporation Kumamoto University, priority 2023, published 2026):

Legend:
[1] = tested on: EPCR High cell group (hematopoietic stem cells); experiment: ex vivo culture of mouse EPCR High cell group for 4 days, flow cytometry and cell count; type: cell-based; conditions: for proportion of EPCR High in hematopoietic stem cells (EPCR High phenotype): flow cytometry; for number of cells compared with the control: 4 days culture, FIG. 7(B)
Description: The expression of c-kit and EPCR in a hematopoietic stem cell fraction (lineage: CD150+, CD48−) isolated from a mouse by using flow cytometry was checked. Among the c-kit-positive and EPCR-positive cells, a cell group of the top 30% of the EPCR-positive cells was defined as an EPCR High cell group, and a cell group of the bottom 30% of the EPCR-positive cells was defined as an EPCR Low cell group (see FIG. 1). Each cell group was transplanted into a recipient mouse, and 20 weeks later, the proportion of cells derived from the transplanted stem cells was examined in the peripheral blood (PB). In addition, at the same time, the proportion of cells derived from the transplanted stem cells was examined in the hematopoietic stem cell fraction (L-ESLAM) in the bone marrow after 20 weeks of the transplantation. The experiment was carried out twice.
As shown in FIG. 5(A), α-ketoglutaric acid (αKG), which is an intermediate metabolite of the TCA cycle, is also produced from glutamic acid or the like, and then it is supplied to the TCA cycle. In addition, in the production of a-ketoglutaric acid from glutamic acid, two pathways of a transaminase pathway and a glutamate dehydrogenase pathway are used (see FIG. 5(B)). Therefore, the proportion of EPCR High in hematopoietic stem cells was determined in a case where the EPCR High cell group was cultured for 4 days by adding each of an inhibitor R162 (30 μM) of glutamate dehydrogenase and an inhibitor aminooxyacetic acid (AOA) (50 μM) of transaminase to the culture medium, and in a case where the content of […], which is the source of glutamic acid synthesis, was set to 1/100 (0.02 mM) in FIG. 5(A) (Low Neu.).
The above-described mouse EPCR High cell group was cultured for 4 days by adding EGCG (50 μM), which is another glutamate dehydrogenase inhibitor, to a culture medium.

[2] = tested on: Human CD34+ bone marrow cells; experiment: culture of human CD34+ bone marrow cells for 7 days, total cell number and flow cytometry; type: cell-based; conditions: R162 30 μM
Protocol: Human CD34^+ bone marrow cells (10,000 cells) were cultured for 7 days under normal culture conditions or in the presence of a glutamate dehydrogenase inhibitor R162 (30 μM), and then the total number of cells was analyzed. Then, the proportion of hematopoietic stem cells (lineage: CD34+CD38−CD90+cells) was analyzed using a flow cytometer, and from the results, the number of stem cells was estimated. FIG. 13 and FIG. 14 show the results. As shown in FIG. 14(A), it has been confirmed that the total number of cells is not changed by the presence of R162 as compared with the control, whereas as shown in FIG. 14(B), the ratio of stem cells after culturing is increased by the presence of R162.
The culture medium used for the ex vivo culture of human CD34+ bone marrow cells is a culture medium obtained by adding, to the RPMI medium, L-Alanin (4.45 mg/L), Zinc Sulfate Heptahydrate (0.432 mg/L), Cupric Sulfate Pentahydrate (0.0013 mg/L), Ferric Nitrate Nonahydrate (0.05 mg/L), Ferrous Sulfate Heptahydrate (0.417 mg/L), Linoleic acid (0.042 mg/L), Hypoxanthine (2.1 mg/L), Putrescine+2HCL (0.081 mg/L), Thioctic Acid (0.105 mg/L), Thymidine (0.365 mg/L), Sodium Pyruvate (55 mg/L), HEPES (1 mM), a penicillin-streptomycin mixed solution (Nacalai Tesque, Inc.: 26253-84) (1/100 capacity), Insulin-Transferrin-Selenium-Ethanolamine (Thermo Fisher Scientific, Inc.: 51500056) (1/100 capacity), and AlbuMAXtm I Lipid-Rich BSA (Thermo Fisher Scientific, Inc.: 11020021) (2%).

[3] = tested on: recipient mouse; experiment: transplantation of cultured cell groups into a recipient mouse, proportion of donor-derived cells; type: in vivo
Protocol: Mouse EPCR High cells were cultured for 4 days under the normal culture conditions or in the presence of R162, and 50 cells of each of an EPCR High cell group (Control) generated under the normal culture conditions, an EPCR Low cell group (Control), and an EPCR High cell group (R162) amplified in the presence of R162 were aliquoted and then transplanted into a recipient mouse. Then, after 4 weeks and 12 weeks, the proportion of cells derived from donor cells in the peripheral blood was examined.
Further, the EPCR High cells were cultured for 4 days under the normal culture conditions and cultured for 4 days in the presence of R162, and the EPCR High cell group generated under the normal culture conditions, the EPCR Low cell group, and the EPCR High cell group (R162) amplified in the presence of R162 were each transplanted into a recipient mouse. Then, 20 weeks later, the proportion of cells derived from donor cells was examined in the peripheral blood and the hematopoietic stem cell fraction in the bone marrow (L-ESLAM (BM)).

## O=C(O[C@@H]1Cc2c(O)cc(O)cc2O[C@@H]1c1cc(O)c(O)c(O)c1)c1cc(O)c(O)c(O)c1 [EGCG, epigallo catechin-3-gallate]
[1]; EGCG 50 μM in culture medium, 4 days, FIG. 15
  proportion of EPCR High in hematopoietic stem cells (EPCR High phenotype): phenotype of EPCR High is maintained

## NOCC(=O)O [AOA, aminooxyacetic acid]
[1]; AOA 50 μM
  number of cells compared with the control: significantly reduced

## C=CCc1ccc2c(c1O)C(=O)c1ccccc1C2=O [R162, 2-allyl-1-hydroxy-9,10-anthraquinone]
[2]; 7 days, 10,000 cells seeded, FIG. 14(A)
  total number of cells compared with the control: not changed
[2]; 7 days, flow cytometer, FIG. 14(B)
  ratio of stem cells (CD34+CD38−CD90+ cells) after culturing: increased
[2]; 7 days, estimated from total cell number and stem cell proportion
  number of stem cells compared with normal culture conditions: number of stem cells is increased
[1]; Mus musculus, Hematopoietic stem cell, 96 h, culture in the presence of R162 (30 μM), 4 days, read-out: increase in number of cells having the EPCR High phenotype compared with normal culture conditions
  fold induction at 30 µM: ~2
[1]; R162 30 μM in culture medium, 4 days, FIG. 6/7(A)
  proportion of EPCR High in hematopoietic stem cells (EPCR High phenotype): phenotype of EPCR High is maintained
[1]; R162 30 μM
  number of cells compared with the control: about the same level as that of the control
[3]; 50 EPCR High cells amplified 4 days in the presence of R162, transplanted, 4 weeks and 12 weeks, FIG. 8
  proportion of cells derived from donor cells in the peripheral blood (ability to reconstruct hematopoietic tissue): high ability to reconstruct hematopoietic tissue, which is equivalent to the EPCR High cell group (Control)
[3]; EPCR High cells amplified 4 days in the presence of R162, transplanted, 20 weeks, vs EPCR High and EPCR Low (Control), FIG. 12
  proportion of cells derived from donor cells in peripheral blood and bone marrow hematopoietic stem cell fraction (L-ESLAM (BM)): high ability to maintain the reconstructed hematopoiesis for a longer period of time
